Tests used:
mouse GMPs = assay: Ex vivo expansion of mouse bone marrow-derived cells / mouse GMPs; assay type: cell-based
Text: (A) Schematic of the experimental design to identify growth factors and small molecules that can promote expansion of mouse bone marrow-derived stem cells. (B) Representative phase-contrast images of mouse bone marrow cells cultured in N2B27 supplemented with the indicated small molecule inhibitors for 7 days. (C) Representative phase-contrast images of mouse bone marrow cells cultured in N2B27 supplemented with SCF plus GDC0879 or SB590885 for 3 passages. (D) Cell growth curves. Bone marrow cells isolated from C57BL/6J mice were plated into 24-well plates at a density of 2×10^5 cells/well and cultured in B7 medium supplemented with the indicated small molecules/growth factor. Cells were counted and passaged every 3 days. Data are represented as mean±SD from three independent experiments. (E) Bone marrow cells isolated from C57BL/6J mice were cultured in B7 medium supplemented with SCF/2i. Cells were passaged every 3 days. Representative phase-contrast pictures showing SCF/2i cells at different passages. (F) Cytogenetic analysis of SCF/2i cells using the GWT banding method. Bone marrow cells isolated from a female C57BL/6J mouse were expanded in SCF/2i for 8 passages before used for cytogenetic analysis. […] (G) Sequential images of individual bone marrow cells during expansion in B7 medium supplemented with SCF/2i. SCF/2i-expanded bone marrow cells were plated into 96-well plates at a density of 50 cells/well and cultured in SCF/2i. Sequential images were taken using the Keyence BZ-X710 microscopy every 24 hours. 15.7±4.0 colonies formed per well on day 4 (n=3×96). Data are represented as mean±SD from three independent experiments.
Mouse GMP derivation, expansion, and differentiation. Cells were cultured at 37° C. in a 5% CO2 water jacket incubator (Thermo Scientific). Bone marrow cells isolated from C57BL/6J, mTmG or CAG-Cas9-EGFP mice were plated into 6-well plates at a density of 2×10^6 cells/well and cultured in 2 mL B7 medium supplemented with 50 ng/mL SCF, 1 μM GDC-0879, and 10 μM SKL2001 (SCF/2i). After 3-4 days, cells were dissociated into single-cell suspension by pipetting up and down and replated into 6-well plates at a density of 2×10^6 cells/well and cultured in 2 mL B7 medium supplemented with SCF/2i. After 2 passages in SCF/2i, the majority of cells were GMPs. GMPs were routinely passaged every 3 days. To induce differentiation, GMPs were plated into 10 cm tissue culture dishes and cultured in RPMI-1640 medium containing 10% FBS and supplemented with either 20 ng/mL M-CSF (for macrophage differentiation) or 20 ng/mL G-CSF (for granulocyte differentiation). GMP-derived macrophages were harvested on day 7 (medium was changed once on day 4) and GMP-derived granulocytes were harvested on day 3 and used for the further experiments.
Development of defined conditions for the long-term ex vivo expansion of hematopoietic stem/progenitor cells. To develop conditions for the long-term expansion of stem or progenitor cells of the hematopoietic system, screening was conducted to identify small molecules and growth factors/cytokines that can promote their ex vivo expansion (see FIG. 3A). Specifically, bone marrow cells isolated from adult C57BL/6 mice were plated into 96-well plates in serum-free N2B27 medium. Then a first-round small molecule screening was performed. It was reasoned that if a small molecule can block differentiation or promote expansion of stem cells, these stem cells should form colonies with a uniform cell morphology. […] Upon passaging, however, no new colonies were formed in culture with any of the 5 small molecule inhibitors. A second-round screening was conducted to identify growth factors/cytokines that could further improve the expansion of the colonies.
More importantly, these cells could be expanded robustly at clonal density (see FIG. 3G).
SCF/2i-expanded cells are GMPs. […]

human GMPs = assay: Ex vivo expansion of human GMPs sorted from cord blood; assay type: cell-based; conditions: added to SCF/GDC-0879
Text: (A) Growth curves of human GMPs. Human GMPs were FACS sorted from cord blood and cultured in the designated conditions. Cells were passaged every 3 days and replated into 12-well plates at a density of 1×10^5 cells/well. Data are represented as mean±SD from three independent experiments. (B) Structure of TN-2-30. (C) Representative phase-contrast images of human GMPs cultured in modified SCF/2i. P, passage number. (D) Sorted human GMPs were expanded in modified SCF/2i and induced to differentiate towards granulocytes by treatment with 30 ng/ml human G-CSF for 10 days. Differentiated cells were analyzed by Giemsa staining (upper panel) and flow cytometry (lower panel). Flow cytometry data are represented as mean±SD from three independent experiments. (E) Relative MPO activities of human GMPs and human GMP-derived granulocytes stimulated with or without PMA for 2 hours. Differentiated cells generated in (D) were plated into 96-well plates at a density of 2×10^4 cells/well and stimulated with or without PMA for 2 hours, after which MPO activities in the supernatants were measured. Data are represented as mean±SD from three independent experiments. […] (H) Differentiated cells generated in (D) and (F) were plated into 96-well plates at a density of 2×10^4 cells/well and stimulated with or without 500 ng/ml LPS for 6 hours, after which cytokine secretion in the supernatants was measured by ELISA. […]

Question: With O=C(NCCCn1ccnc1)c1cc(-c2ccco2)on1 [SKL2001] as the compound, how does the “long-term expansion of a uniform cell population” value (mouse GMPs; combined with SCF and GDC-0879) read?
Answer: allowed for the long-term expansion

Question: And the “interaction with GDC-0879 in promoting expansion of the uniform round-shaped cells” value (mouse GMPs; second screening, with GDC-0879)?
Answer: acted synergistically

Question: And the “requirement for expansion of β-catenin knockout mouse GMPs” value (mouse GMPs; β-catenin knockout mouse GMPs)?
Answer: still required the addition of SKL2001

Question: What about the “effect of addition on expansion of human GMPs” value (human GMPs) of the same compound?
Answer: only marginally improved

Reference: patent US20240294876A1, “METHODS FOR THE EXPANSION OF HUMAN GRANULOCYTE-MACROPHAGE PROGENITORS AND APPLICATIONS THEREOF” (University of Southern California, priority 2021, published 2024)
